According to the CheMixHub viscosity set:
Where “and” joins values, the source holds several entries; their conditions need not be identical. Equal entries are not always repeated.

Experiments:
[1] = xn = mol fraction of the nth substance listed; conditions: 101 kPa

CCCCC(=O)OCC
101.33 kPa
Conditions	viscosity [mPa·s]
293.15 K	0.846
303.15 K	0.694
313.15 K	0.629

CC(=O)O.NCCO
viscosity
Conditions	293.15 K	298.15 K	303.15 K	308.15 K	313.15 K	318.15 K	323.15 K
101 kPa	5032 mPa·s	3167 mPa·s	2044 mPa·s	1369 mPa·s	947.7 mPa·s	661 mPa·s	477.5 mPa·s
101.3 kPa	3423 mPa·s	2300 mPa·s and 2300 mPa·s and 2267 mPa·s	1502 mPa·s	1021 mPa·s	711.1 mPa·s	506.5 mPa·s	368.3 mPa·s

CC1(C)OCC(CO)O1 (centres undefined)
101 kPa
Conditions	viscosity [mPa·s]
298.15 K	9.643
308.15 K	6.834
318.15 K	5.076

CC/C=C\CCO
100 kPa
Conditions	viscosity [mPa·s]
293.15 K	3.336
298.15 K	2.921
303.15 K	2.566
308.15 K	2.266
313.15 K	2.012
318.15 K	1.807

C[N+](C)(C)CCC[n+]1ccccc1.N#C[N-]C#N.N#C[N-]C#N
100 kPa
Conditions	viscosity
293.15 K	2191 mPa·s and 2191 mPa·s
298.15 K	1306 mPa·s
303.15 K	830.8 mPa·s and 830.8 mPa·s
308.15 K	557.7 mPa·s
313.15 K	386 mPa·s and 386 mPa·s
318.15 K	280.7 mPa·s
323.15 K	210.2 mPa·s and 210.2 mPa·s

CCCCCCn1cc[n+](C)c1.O=S(=O)([N-]S(=O)(=O)C(F)(F)F)C(F)(F)F
viscosity
Conditions	293.15 K	298.15 K	303.15 K	308.15 K	313.15 K	318.15 K	323.15 K
100 kPa	89 mPa·s and 85.15 mPa·s	65.94 mPa·s	51.91 mPa·s	41.36 mPa·s	33.79 mPa·s	–	–
101 kPa	–	–	58.3 mPa·s	50.4 mPa·s	41.4 mPa·s	35 mPa·s	28.8 mPa·s

CCCCN(CCC#N)CCCC
Conditions	viscosity [mPa·s]
303.15 K, 100 kPa	2.5

CC(C)CC(C)O (centres undefined)
Conditions	viscosity
298.15 K, 101.33 kPa	3.823 mPa·s and 3.823 mPa·s

CS(C)=O
Conditions	viscosity
293.15 K, 100 kPa	2.11 mPa·s and 2.23 mPa·s and 2.239 mPa·s
298 K, 101.3 kPa	2.024 mPa·s
298.15 K, 101 kPa	1.79 mPa·s
298.15 K, 101.3 kPa	1.944 mPa·s and 1.926 mPa·s
298.15 K, 101.33 kPa	1.848 mPa·s
299 K, 101 kPa	3.143 mPa·s
302.4 K, 101 kPa	3.676 mPa·s
303.15 K, 100 kPa	1.79 mPa·s
303.15 K, 101.3 kPa	1.788 mPa·s and 1.788 mPa·s (2×) and 1.788 mPa·s
308.15 K, 100 kPa	1.63 mPa·s
308.15 K, 101.33 kPa	1.498 mPa·s
313.15 K, 100 kPa	1.5 mPa·s
313.15 K, 101.33 kPa	1.449 mPa·s and 1.619 mPa·s
318.15 K, 101.3 kPa	1.31 mPa·s and 1.31 mPa·s
318.15 K, 101.33 kPa	1.317 mPa·s
323.15 K, 101.3 kPa	1.284 mPa·s
323.15 K, 101.33 kPa	1.221 mPa·s and 1.433 mPa·s

CCN(CC)S(C)(=O)=O
Conditions	viscosity [mPa·s]
303.15 K, 101.33 kPa	40590

CC(=O)CC(C)(C)O
Conditions	viscosity [mPa·s]
298.15 K, 101 kPa	2.902

COP(=O)([O-])OC.C[N+]1(CCO)CCCC1
100 kPa
Conditions	viscosity [mPa·s]
293.15 K	1452
298.15 K	980.6
303.15 K	687.4
308.15 K	496.1
313.15 K	366
318.15 K	272.8
323.15 K	210.2

CC(C)=CC(=O)C=C(C)C
Conditions	viscosity [mPa·s]
298.15 K, 101 kPa	1.394

CCN(CC)CCO
viscosity
Conditions	298.15 K	303.15 K	313.15 K	323.15 K
101.3 kPa	–	3.308 mPa·s	2.414 mPa·s	1.466 mPa·s
101.33 kPa	4.022 mPa·s and 4.01 mPa·s	3.308 mPa·s	2.414 mPa·s	–

CCCCC
viscosity
Conditions	100 kPa	101 kPa	101.33 kPa
293.15 K	0.222 mPa·s	–	–
298.15 K	0.212 mPa·s	0.2121 mPa·s and 0.214 mPa·s	0.223 mPa·s and 0.223 mPa·s and 0.237 mPa·s

OC1CCCCC1
viscosity
Conditions	293.15 K	298.15 K	303.15 K	308 K	308.15 K	313.15 K	318.15 K	318.16 K	323.15 K
100 kPa	83.29 mPa·s	58.97 mPa·s	43.42 mPa·s	–	33.66 mPa·s and 32.39 mPa·s	25.52 mPa·s and 25.85 mPa·s	20.14 mPa·s	19.5 mPa·s	–
101 kPa	–	–	23.6 mPa·s and 39.55 mPa·s	27.95 mPa·s	27.95 mPa·s	–	–	–	8.89 mPa·s

C1CCCCCCC1
101 kPa
Conditions	viscosity
298.15 K	2.25 mPa·s
303 K	2.007 mPa·s
303.15 K	2.031 mPa·s
308.15 K	1.818 mPa·s (2×) and 1.818 mPa·s
313.15 K	1.649 mPa·s and 1.692 mPa·s

OC1CCCCC1 + Cc1ccc(Cl)cc1
[1], 303.15 K
Conditions	viscosity [mPa·s]
x1 = 0.1115	4.565
x1 = 0.2202	8.427
x1 = 0.3262	12.25
x1 = 0.4296	16.24
x1 = 0.5305	20.28
x1 = 0.6289	24.45
x1 = 0.725	28.53
x1 = 0.8188	32.85
x1 = 0.9105	36.99

CCCCC + C1CCCCC1
[1]
Conditions	viscosity [mPa·s]
293.15 K, x2 = 0.2248	0.287
293.15 K, x2 = 0.3367	0.327
293.15 K, x2 = 0.4743	0.39
293.15 K, x2 = 0.601	0.466
293.15 K, x2 = 0.7202	0.561
293.15 K, x2 = 0.8333	0.685
298.15 K, x2 = 0.176	0.264
298.15 K, x2 = 0.3541	0.321
298.15 K, x2 = 0.4788	0.372
298.15 K, x2 = 0.6163	0.447
298.15 K, x2 = 0.7478	0.544
298.15 K, x2 = 0.8754	0.68
